Experimental data taken from ChEMBL document CHEMBL4665677, “Recent Advances of SHP2 Inhibitors in Cancer Therapy: Current Development and Clinical Application” (J Med Chem, 2020).

Columns and labels:
[1] = biological target: T1, Tyrosine-protein phosphatase non-receptor type 11 (Homo sapiens) (UniProt Q06124); test: Allosteric inhibition of dPEG8 peptide-activated SHP2 (unknown origin) using DiFMUP as substrate at 100 nM preincubated for 30 followed by substrate addition and measured after 30 mins by fluorescence method relative to control
T1 sequence (whole entry): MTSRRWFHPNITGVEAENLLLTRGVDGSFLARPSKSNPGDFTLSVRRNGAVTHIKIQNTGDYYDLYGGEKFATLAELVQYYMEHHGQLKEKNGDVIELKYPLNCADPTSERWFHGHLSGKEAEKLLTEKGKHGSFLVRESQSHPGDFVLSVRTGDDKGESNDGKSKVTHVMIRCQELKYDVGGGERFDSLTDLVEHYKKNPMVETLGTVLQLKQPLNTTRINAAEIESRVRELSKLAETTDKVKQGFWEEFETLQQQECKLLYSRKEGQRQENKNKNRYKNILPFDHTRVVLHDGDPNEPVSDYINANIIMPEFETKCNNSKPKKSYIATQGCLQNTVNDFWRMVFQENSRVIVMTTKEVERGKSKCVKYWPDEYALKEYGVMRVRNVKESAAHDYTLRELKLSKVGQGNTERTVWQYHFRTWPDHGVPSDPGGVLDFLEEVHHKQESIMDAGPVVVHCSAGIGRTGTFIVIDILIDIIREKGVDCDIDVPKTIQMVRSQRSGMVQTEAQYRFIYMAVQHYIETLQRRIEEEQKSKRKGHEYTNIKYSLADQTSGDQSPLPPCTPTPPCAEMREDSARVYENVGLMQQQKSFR

[2] = biological target: T2, Tyrosine-protein phosphatase non-receptor type 11 (Homo sapiens, UniProt Q06124); test: Inhibition of SHP2 PTP domain (unknown origin)
T2 sequence (Q06124 whole entry): T1 sequence (whole entry)

[3] = biological target: T2, Tyrosine-protein phosphatase non-receptor type 11; test: Allosteric inhibition of full-length His6-tagged human SHP2 (2 to 527 residues) expressed in Escherichia coli using DiFMUP as substrate in presence of activating peptide (LN(pY)IDLDLV(dPEG8)LST(pY)ASINFQK-amide) by fluorescence method
[4] = biological target: T3, Tyrosine-protein phosphatase non-receptor type 6 (Homo sapiens, UniProt P29350); test: Inhibition of SHP1 (unknown origin) using 6,8-difluoro-4-methylum-belliferylphosphate as substrate preincubated for 1 hr followed by substrate by fluorescence method
[5] = biological target: T2, Tyrosine-protein phosphatase non-receptor type 11; test: Inhibition of N-terminal His6-tagged TEV cleavage site-fused human SHP2 catalytic domain (248 to 527 residues) expressed in Escherichia coli Rosetta(DE3) using 6,8-difluoro-4-methylum-belliferylphosphate as substrate preincubated for 1 hr followed by substrate addition by fluorescence method
[6] = biological target: T4, Tyrosine-protein phosphatase non-receptor type 1 (Homo sapiens, UniProt P18031); test: Inhibition of PTP1B (unknown origin) using 6,8-difluoro-4-methylum-belliferylphosphate as substrate preincubated for 1 hr followed by substrate by fluorescence method
T4 sequence (P18031 whole entry): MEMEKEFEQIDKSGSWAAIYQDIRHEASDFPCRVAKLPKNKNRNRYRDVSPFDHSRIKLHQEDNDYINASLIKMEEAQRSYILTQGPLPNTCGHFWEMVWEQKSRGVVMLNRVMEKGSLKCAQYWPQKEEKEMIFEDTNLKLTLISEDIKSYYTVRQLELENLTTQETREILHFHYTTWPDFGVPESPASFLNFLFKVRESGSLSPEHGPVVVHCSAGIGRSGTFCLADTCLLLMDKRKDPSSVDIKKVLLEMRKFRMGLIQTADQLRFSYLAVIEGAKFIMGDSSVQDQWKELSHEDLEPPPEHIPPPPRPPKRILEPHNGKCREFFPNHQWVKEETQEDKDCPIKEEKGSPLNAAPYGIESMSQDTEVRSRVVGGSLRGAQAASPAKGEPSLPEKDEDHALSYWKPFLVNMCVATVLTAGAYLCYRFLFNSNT

[7] = biological target: T4, Tyrosine-protein phosphatase non-receptor type 1; test: Inhibition of N-terminal His6-tagged TEV cleavage site-fused human PTP1B (2 to 297 residues) expressed in Escherichia coli BL21(DE3)RILcodon+ or BL21(DE3)RPcodon+ using 4-nitrophenylphosphate as substrate
[8] = biological target: T3, Tyrosine-protein phosphatase non-receptor type 6; test: Inhibition of N-terminal His6-tagged TEV cleavage site-fused human SHP1 (222 to 535 residues) expressed in Escherichia coli BL21(DE3)RILcodon+ or BL21(DE3)RPcodon+ using 4-nitrophenylphosphate as substrate
[9] = biological target: T3, Tyrosine-protein phosphatase non-receptor type 6; test: Inhibition of recombinant His6-fused SHP1 catalytic domain (unknown origin) using p-nitrophenyl phosphate as substrate by spectrophotometric analysis
[10] = biological target: T2, Tyrosine-protein phosphatase non-receptor type 11; test: Allosteric inhibition of [IRSl_pY1172(dPEG8)pY1222] peptide-activated SHP2 (unknown origin) using DiFMUP as substrate preincubated for 30 to 60 mins followed by substrate addition and measured after 30 mins by fluorescence method
[11] = Antitumor activity against human LXFA526L cells xenografted in NMRI nu/nu mouse assessed as induction of tumor regression at 46 mg/kg, ip administered once daily and measured on day 27 relative to control; format: functional; conditions: time 27 day
[12] = biological target: T2, Tyrosine-protein phosphatase non-receptor type 11; test: Allosteric inhibition of SHP2 (unknown origin) using DiFMUP as substrate preincubated for 60 mins in presence of activating peptide IRS-1 followed by substrate addition and measured after 60 mins by fluorescence method
[13] = biological target: Tyrosine-protein phosphatase non-receptor type 11 (Homo sapiens, UniProt Q06124, Q257L/T253M); test: Inhibition of SHP2 T253M/Q257L double mutant (unknown origin)
[14] = biological target: T2, Tyrosine-protein phosphatase non-receptor type 11; test: Allosteric inhibition of full length N-terminal His6-tagged human SHP2 (2 to 593 residues) expressed in Escherichia coli using DiFMUP as substrate in presence of activating peptide preincubated for 60 mins followed by substrate addition amd measured after 30 mins by fluorescence method
[15] = biological target: T2, Tyrosine-protein phosphatase non-receptor type 11; test: Allosteric inhibition of dPEG8 peptide-activated SHP2 (unknown origin) using DiFMUP as substrate preincubated for 30 followed by substrate addition and measured after 30 mins by fluorescence method
MeWo = test: Antitumor activity against human MeWo cells xenografted in NSG (NOD/scid/IL2Rgnull) mouse assessed as reduction in tumor volume at 15 mg/kg, ip administered once daily for 21 days; format: functional; design: scale not given: the % may be the effect or the level left; conditions: time 21 day
[16] = biological target: T2, Tyrosine-protein phosphatase non-receptor type 11; test: Allosteric inhibition of IRS1_pY1172(dPEG8)pY1222 activated-human full length SHP2 (Met1 to Leu525 residues) expressed in Escherichia coli BL21 Star (DE3) cells using DiFMUP as substrate preincubated for 30 to 60 mins followed by substrate addition and measured after 30 mins by fluorescence method
[17] = biological target: T3, Tyrosine-protein phosphatase non-receptor type 6; test: Inhibition of His6-fused human SHP1 catalytic domain expressed in Escherichia coli cells using DiFMUP as substrate preincubated for 30 followed by substrate addition and by fluorescence method
[18] = biological target: T4, Tyrosine-protein phosphatase non-receptor type 1; test: Inhibition of His6-fused human PTP1B expressed in Escherichia coli cells using DiFMUP as substrate preincubated for 30 followed by substrate addition and by fluorescence method
[19] = biological target: T3, Tyrosine-protein phosphatase non-receptor type 6; test: Inhibition of His6-fused human full length SHP1 expressed in Escherichia coli cells using DiFMUP as substrate preincubated for 30 mins followed by substrate addition and by fluorescence method

T3 sequence (P29350 whole entry, the tested form may be a part): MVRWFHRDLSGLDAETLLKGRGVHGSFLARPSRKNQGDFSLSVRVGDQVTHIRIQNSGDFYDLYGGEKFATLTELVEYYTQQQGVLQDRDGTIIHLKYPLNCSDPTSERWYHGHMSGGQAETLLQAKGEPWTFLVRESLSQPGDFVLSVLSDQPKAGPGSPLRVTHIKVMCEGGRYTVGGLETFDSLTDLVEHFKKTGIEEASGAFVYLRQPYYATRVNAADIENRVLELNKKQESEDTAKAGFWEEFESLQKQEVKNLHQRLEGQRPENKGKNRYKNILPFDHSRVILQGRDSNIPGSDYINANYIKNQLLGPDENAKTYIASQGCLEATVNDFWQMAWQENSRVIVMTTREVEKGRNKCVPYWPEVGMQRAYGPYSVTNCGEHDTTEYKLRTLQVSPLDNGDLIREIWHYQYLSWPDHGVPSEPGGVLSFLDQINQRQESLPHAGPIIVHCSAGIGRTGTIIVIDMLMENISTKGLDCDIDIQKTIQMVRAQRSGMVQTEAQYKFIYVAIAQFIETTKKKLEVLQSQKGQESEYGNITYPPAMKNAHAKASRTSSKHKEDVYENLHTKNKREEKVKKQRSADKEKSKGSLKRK
Tyrosine-protein phosphatase non-receptor type 11 (Homo sapiens, UniProt Q06124, Q257L/T253M), sequence (Q06124 2-593 T253M/Q257L limits assumed): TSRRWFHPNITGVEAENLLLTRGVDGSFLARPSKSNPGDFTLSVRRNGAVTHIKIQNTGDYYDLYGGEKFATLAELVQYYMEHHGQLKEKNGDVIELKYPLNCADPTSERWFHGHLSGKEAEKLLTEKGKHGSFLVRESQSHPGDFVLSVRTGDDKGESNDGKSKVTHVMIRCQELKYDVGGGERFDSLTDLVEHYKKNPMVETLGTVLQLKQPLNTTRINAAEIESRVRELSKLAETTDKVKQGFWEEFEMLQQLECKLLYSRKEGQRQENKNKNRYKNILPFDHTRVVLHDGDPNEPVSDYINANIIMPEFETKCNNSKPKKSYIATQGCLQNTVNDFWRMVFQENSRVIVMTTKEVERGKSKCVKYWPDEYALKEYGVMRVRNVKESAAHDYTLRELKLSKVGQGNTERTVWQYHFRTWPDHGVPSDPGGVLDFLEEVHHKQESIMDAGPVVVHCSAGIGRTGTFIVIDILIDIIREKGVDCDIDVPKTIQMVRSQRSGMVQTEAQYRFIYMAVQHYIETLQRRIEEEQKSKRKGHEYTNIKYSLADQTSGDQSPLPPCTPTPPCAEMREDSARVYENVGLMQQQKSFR

Nc1nc(N2CCC3(CC2)Cc2ncsc2[C@H]3N)cnc1Sc1ccnc(N)c1Cl
inhibition ([1]; filed as negative allosteric modulator): 49%

Nc1nc(N2CCC3(CC2)c2ncccc2C[C@H]3N)cnc1Sc1ccnc(N)c1Cl
inhibition [1]: 20%

COc1cccc(-c2nnc3n(Cc4ccc(C(=O)N5CCC[C@H]5C(=O)O)cc4Cl)c(=O)c4ccccc4n23)c1O
IC50 [2]: > 100000 nM

C[C@@H]1OCC2(CCC(c3cnc4nc(Sc5ccnc(N6CCCC6)c5Cl)ccc4n3)CC2)[C@@H]1N (some centres undefined)
IC50 [3]: 100 nM

COc1ccc(N2N=C(c3ccc([N+](=O)[O-])cc3)/C(=N/Nc3ccc(S(=O)(=O)O)cc3)C2=O)cc1
IC50 [4]: 2140 nM | IC50 [5]: 500 nM | IC50 [6]: 6800 nM

CCOC(=O)c1ccc(N2N=C(c3ccc([N+](=O)[O-])cc3)/C(=N/Nc3ccc(S(=O)(=O)O)cc3)C2=O)cc1
IC50 [7]: 2100 nM | IC50 [8]: 1800 nM

NC(=O)[C@H](Cc1ccc(C(F)(F)P(=O)(O)O)cc1)NC(=O)[C@H](CC(=O)O)NC(=O)Cc1ccc(C(F)(F)P(=O)(O)O)cc1
IC50 [9]: 11000 nM

Nc1nc(N2CCC3(CCC[C@H]3N)CC2)cnc1-c1cccc(Cl)c1Cl
IC50 [10]: 70 nM

O=C1/C(=N\Nc2ccc(S(=O)(=O)O)cc2)C(c2ccc([N+](=O)[O-])cc2)=NN1c1ccc([N+](=O)[O-])cc1
IC50 [4]: 2080 nM | Activity [11]: 42.6% | IC50 [5]: 70 nM | IC50 [6]: 3170 nM

O=C1/C(=N\Nc2ccc(S(=O)(=O)O)cc2)C(c2ccc([N+](=O)[O-])cc2)=NN1c1ccc(Cl)cc1
IC50 [4]: 10200 nM | IC50 [5]: 1160 nM | IC50 [6]: 8930 nM

CC1(CN)CCN(c2ncc(Sc3cccc(Cl)c3Cl)[nH]c2=O)CC1
IC50 [12]: < 50 nM

COc1cccc(-c2nnc3n(Cc4ccccc4Cl)c(=O)c4ccccc4n23)c1O
IC50 [13]: 68000 nM | IC50 [2]: > 100000 nM

CC1(N)CCN(c2nc3sc(-c4cccc(Cl)c4Cl)nn3c2CO)CC1
IC50 [14]: 22.3 nM

Nc1nc(N2CCC3(CC2)Cc2cnccc2[C@H]3N)cnc1Sc1ccnc(N)c1Cl
IC50 [15]: 3 nM

CC1(N)CCN(c2cnc3c(-c4cccc(Cl)c4Cl)n[nH]c3c2)CC1
IC50 [14]: 17.9 nM

Nc1nc(N2CCC3(CC2)Cc2ncccc2[C@H]3N)cnc1Sc1ccnc(N)c1Cl
inhibition [1]: 30%

O=C(O)c1ccc(O)c(-c2nnc3n(Cc4ccccc4Cl)c(=O)c4ccccc4n23)c1
IC50 [2]: > 100000 nM

O=C(Nc1ccc(-c2cc[nH]c2)cc1)C(=O)Nc1cccc(-c2[nH]c3cc(O)c(C(=O)O)cc3c2I)c1
Activity (MeWo): 52%

O=c1c2ccccc2n2c(-c3ccccc3O)nnc2n1Cc1ccccc1Cl
IC50 [16]: > 100000 nM | IC50 [2]: > 100000 nM

Nc1nc(N2CCC3(CC2)Cc2ccncc2[C@H]3N)cnc1Sc1ccnc(N)c1Cl
IC50 [15]: 7 nM

O=C1/C(=N\Nc2ccc(S(=O)(=O)O)cc2)C(c2ccc([N+](=O)[O-])cc2)=NN1c1ccc(C(F)(F)F)cc1
IC50 [4]: 14400 nM | IC50 [5]: 940 nM | IC50 [6]: 10600 nM

Cc1ccc(N2N=C(c3ccc([N+](=O)[O-])cc3)/C(=N/Nc3ccc(S(=O)(=O)O)cc3)C2=O)cc1
IC50 [4]: 9830 nM | IC50 [5]: 410 nM | IC50 [6]: 6560 nM

Cc1nc(N2CCC3(CC2)CO[C@@H](C)[C@H]3N)c(CO)nc1-c1cccc(Cl)c1Cl
IC50 [17]: > 10000 nM | IC50 [18]: > 10000 nM | IC50 [19]: > 10000 nM
